Read-outs that look alike come from different tables or passages of the source.
Experiments:
[1] = target: LdGSK-3 (Leishmania donovani, UniProt A6N857); assay: Inhibition of LdGSK-3 with Kinase Glo; type: biochemical; conditions: for % inhibition @ 10µM (initial screening on LdGSK3): Table S2; for IC50: read-out: LdGSK-3 IC50
Procedure: Assessment of inhibition of LdGSK-3 with Kinase Glo^TM
The reaction was allowed to proceed for 30 min at 30 °C, then it was incubated at room temperature for another 10 min after addition of Kinase Glo reagents (Promega, Ref. V6712). ATP consumption by LdGSK-3 was measured indirectly through end-point luminescence measurement of each well in a Varioskan Flash microplate reader (Thermo).

[2] = target: hGSK-3β (Homo sapiens, UniProt P49841); assay: hGSK-3β inhibition; type: biochemical; conditions: Table 2
Chain of hGSK-3β (P49841 whole entry): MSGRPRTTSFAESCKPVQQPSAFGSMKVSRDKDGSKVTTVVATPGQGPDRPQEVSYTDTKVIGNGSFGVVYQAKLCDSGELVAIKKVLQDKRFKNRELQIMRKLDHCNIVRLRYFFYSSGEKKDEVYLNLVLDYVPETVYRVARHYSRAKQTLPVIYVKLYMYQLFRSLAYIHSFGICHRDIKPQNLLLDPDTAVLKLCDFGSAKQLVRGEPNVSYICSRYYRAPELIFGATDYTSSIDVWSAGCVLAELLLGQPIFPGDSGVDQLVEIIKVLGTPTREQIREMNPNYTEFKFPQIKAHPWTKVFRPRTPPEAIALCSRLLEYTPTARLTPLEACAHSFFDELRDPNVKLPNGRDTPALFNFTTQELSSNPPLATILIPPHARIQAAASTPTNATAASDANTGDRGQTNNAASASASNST

Chain of LdGSK-3 (A6N857 entry or part of it): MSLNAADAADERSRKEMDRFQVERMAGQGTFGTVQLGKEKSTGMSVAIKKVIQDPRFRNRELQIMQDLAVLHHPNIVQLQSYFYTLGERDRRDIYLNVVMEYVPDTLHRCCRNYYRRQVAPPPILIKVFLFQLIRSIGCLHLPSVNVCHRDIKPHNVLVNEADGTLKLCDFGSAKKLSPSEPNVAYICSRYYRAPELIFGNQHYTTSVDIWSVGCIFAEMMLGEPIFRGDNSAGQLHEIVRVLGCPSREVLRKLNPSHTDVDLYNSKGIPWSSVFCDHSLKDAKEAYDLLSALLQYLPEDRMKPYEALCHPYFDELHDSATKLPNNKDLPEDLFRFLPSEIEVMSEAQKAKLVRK

Compound	% inhibition @ 10µM (initial screening on LdGSK3) [1] [%]	further results
Cc1cc(NC(=O)c2ccc([N+](=O)[O-])s2)ccc1Br [Compound 186]	3.65±2.60	–
CC(=O)Nc1ccc(-c2cnc(N)c(-c3nc4ccc(F)cc4[nH]3)c2)cc1 [Compound 187]	67.81±1.17	IC50 [2]: 1220 ± 430 nM; IC50 ([1]; Table 2): 9100 nM; percentage of inhibition of LdGSK-3 ([1]; assayed at 10 µM): higher than 50%
Cc1cc2cc(CNc3ccc4c(c3)OCO4)c(=O)n(CCO)c2cc1C [Compound 188]	20.90±4.45	–
O=C(c1cccc(Nc2ncc(-c3ccc4c(c3)OCO4)cn2)c1)N1CCOCC1 [Compound 189]	12.20±0.75	–
Nc1nc(-c2ccccn2)nc(N)c1Cc1c(F)cccc1Cl [Compound 190]	8.15±3.40	–
CCOc1ccccc1C(=O)Nc1nnc(-c2ccc3c(c2)OCO3)s1 [Compound 191]	12.20±2.70	–
CC(C)(C)Nc1nc(-c2ccccn2)nc2ccccc12 [Compound 192]	-2.40±2.70	–
O=C(CN(Cc1ccccn1)Cc1ccccn1)NCc1ccc2c(c1)OCO2.O=C(O)C(F)(F)F [Compound 193]	2.65±4.15	–
COc1ccc(C2C3CCCCC3(O)CCN2CC(=O)Nc2ccc(Cl)cc2Cl)cc1 (centres unmarked) [Compound 194]	0.90±4.25	–
COc1ccccc1C1CC(c2ccc(NS(C)(=O)=O)cc2)=NN1C(=O)c1cccs1 (centres unmarked) [Compound 195]	16.55±4.05	–
Cc1cc(C)n(-c2nc(NC(C)(C)C)nc(N3CCOCC3)n2)n1 [Compound 196]	-2.80±6.35	–
CCN(Cc1cccs1)C(=O)CSc1nnc(-c2ccc3c(c2)OCO3)o1 [Compound 197]	10.05±1.90	–
Cc1nc(C(=O)Nc2ccc3c(c2)OCO3)nn1-c1ccc(F)cc1 [Compound 198]	7.15±1.10	–
CC1CN(Cc2ccc(C#N)cc2)CCN1c1ccc(NC(=O)c2ccccc2F)cc1.O=C(O)C(F)(F)F.O=C(O)C(F)(F)F (centres unmarked) [Compound 199]	8.70±1.75	–
COc1ccc2ncc(=O)n(CCN3CCC(NCc4ccc(-c5cccs5)cc4)CC3)c2n1 [Compound 200]	20.95±1.30	–
COc1ccc(-c2csc(NC(=O)c3ccc([N+](=O)[O-])s3)n2)cc1 [Compound 201]	18.65±3.35	–
CC1CCCN(S(=O)(=O)c2ccc(C(=O)Nc3nc(-c4ccccn4)cs3)cc2)C1 (centres unmarked) [Compound 202]	6.50±2.15	–
Cc1ccccc1CNC(=O)CN(Cc1ccccn1)Cc1ccccn1.O=C(O)C(F)(F)F [Compound 203]	4.90±2.30	–
CN(C)CCN(C)Cc1ccc(Cl)cc1NS(=O)(=O)c1ccc(Cl)c(Cl)c1 [Compound 204]	8.00±4.85	–
Cc1nc(-c2ccc3c(c2)OCO3)sc1C(=O)NCc1ccc2c(c1)OCO2 [Compound 205]	14.00±2.25	–
C=CCN(Cc1cccs1)C(=O)CSc1nnc(-c2ccc3c(c2)OCO3)o1 [Compound 206]	10.00±0.90	–
CCN(CC)c1ccc(S(=O)(=O)N(CC)CC)c2nonc12 [Compound 207]	8.90±5.85	–
O=C(CN1CCN(c2ccccn2)CC1)Nc1cc(S(=O)(=O)N2CCCCCC2)ccc1Cl [Compound 208]	10.20±3.25	–
Cc1nc(N2CC(C)OC(C)C2)sc1C(=O)Nc1ccc2c(c1)OCO2 (centres unmarked) [Compound 209]	16.10±4.80	–
COc1ccc([N+](=O)[O-])cc1NC(=O)c1cc(Cl)ccc1O [Compound 210]	17.65±3.55	–
O=C1Nc2ccc(S(=O)(=O)O)cc2C1=C1Nc2ccccc2C1=NO [Indirubin-3’-monoxime-5-sulphonic acid, reference compound]	–	IC50 ([1]; Table 1): 2400 nM
